This note sets out measurements from patent US5545642A, “Derivatives of 1-(2-fluorocyclopropyl)-quinolonecarboxylic acid and 1-(2-fluorocyclopropyl)-naphthridonecarboxylic acid” (Bayer Aktiengesellschaft, priority 1993, dated 1996).

Structures are written as SMILES. Converted amounts (≈) assume the structure as drawn. Where two headings read alike, the source gives them in different places.

In one data set the test system is Escherichia coli Neumann. Nature of the data set: MIC, agar serial dilution (Iso-Sensitest agar), Escherichia coli Neumann. Type of data set: cell-based. Particulars: 37° C., about 20 hours. As for the experimental part:
(§1) The minimum inhibitory concentrations (MIC) were determined on Iso-Sensitest agar (Oxoid) using a serial dilution method. For each substance to be tested, a series of agar plates was prepared, which plates contained diminishing concentrations of the active compound produced in each case by a doubling dilution. The agar plates were inoculated using a Multipoint Inoculator (Denley). For the inoculation, overnight cultures of the pathogens were used which had been diluted beforehand such that each inoculation point contained approximately 10^4 colony-forming particles. The inoculated agar plates were incubated at 37° C. and the growth of organisms recorded after about 20 hours. The MIC value (μg/ml) indicates the lowest concentration of active compound at which no growth was visible to the naked eye. […] Example 8 from European Patent Application 520 277): […]

Data set [1] deals with Staphylococcus aureus ICB 25701. Nature of the data set: MIC, agar serial dilution (Iso-Sensitest agar), Staphylococcus aureus ICB 25701. Type of data set: cell-based. To be noted: about 20 hours. As for the experimental part:
as §1

For a further data set, the system named is Providencia sp. 12012. Nature of the data set: MIC, agar serial dilution (Iso-Sensitest agar), Providencia sp. 12012. Type of data set: cell-based. Particulars: 37° C., about 20 hours. The method, then:
as §1

A short description of the next data set: in vitro. Type of data set: cell-based, Chinese hamster. Particulars: hamster, cho-k1 cells. As for the experimental part: (§2) The LD50 values listed in this table were determined following intravenous administration of the substances to CFl mice. The ID50 is understood to be the concentration of a substance at which the DNA synthesis in Chinese hamster ovary cells (CHO-KI) is inhibited by 50%. This value is determined following incubation of the corresponding substances in descending dilution steps for defined periods. For this purpose, the DNA synthesis in CHO-KI cells is determined in comparison to controls using fluorophotometric methods.

Data set [2] has as its system Staphylococcus aureus 133. In words: MIC, agar serial dilution (Iso-Sensitest agar), Staphylococcus aureus 133. The format is cell-based. To be noted: 37° C., about 20 hours. As for the experimental part:
as §1

The next data set deals with Klebsiella sp. 8085. In words: MIC, agar serial dilution (Iso-Sensitest agar), Klebsiella sp. 8085. To be noted: 37° C., about 20 hours. Type of data set: cell-based. As for the experimental part:
as §1

The test system of a further data set is Micrococcus luteus 9341. Nature of the data set: MIC, agar serial dilution (Iso-Sensitest agar), Micrococcus luteus 9341. The format is cell-based. To be noted: 37° C., about 20 hours. As for the experimental part: as §1
Data set [3] relates to Enterococcus faecalis 27101. Nature of the data set: MIC, agar serial dilution (Iso-Sensitest agar), Enterococcus faecalis 27101. Type of data set: cell-based. Particulars: 37° C., about 20 hours. As for the experimental part: as §1
Data set [4] can be described thus: LD50 following intravenous administration to CFl mice (tolerance). Type of data set: in vivo. Particulars: mouse, in vivo, iv. As for the experimental part:
as §2

The test system of another data set is Morganella morganii 932. In words: MIC, agar serial dilution (Iso-Sensitest agar), Morganella morganii 932. The format is cell-based. Particulars: 37° C., about 20 hours. The method, then: as §1
In data set [5] the test system is Chinese hamster ovary cells (CHO-KI). Nature of the data set: in vitro. Type of data set: cell-based. To be noted: cho-k1 cells. The method, then:
as §2

A further data set relates to CFl mice. In words: LD50 following intravenous administration to CFl mice (tolerance). The format is in vivo. The method, then:
as §2

The mark [6] stands for this setting: Escherichia coli, 20 h, read-out: MIC.
Setting [7] is: ICB25701, 37° C., read-out: MIC.
Where [8] appears, read: Micrococcus luteus, 9341, 20 h, read-out: MIC.

For orientation: MIC means the smallest concentration in the dilution series that meets the test's criterion for growth inhibition. By IC50 is commonly meant the concentration that gives 50% inhibition. Usually LD50 stands for the dose at which mortality reaches 50%. A low value points to greater toxicity. On to `CN1CCC2=C(C1)CN(c1c(F)cc3c(=O)c(C(=O)O)cn([C@@H]4C[C@@H]4F)c3c1F)C2` (relative stereo) [Example 1, 6,8-difluoro-1-(cis-2-fluorocyclopropyl)-1,4-dihydro-7-(5-methyl-2,3,4,5,6,7-hexahydro-1H-pyrrolo[3,4-c]pyridin-2-yl)-4-oxo-3-quinolinecarboxylic acid], for which the minimal inhibitory concentration (MIC) in the data set on Escherichia coli Neumann (setting [6]) is ≤ 0.015 µg/mL; in [1] (setting [7]), 0.5 µg/mL (≈ 1.19 µM); with Providencia sp. 12012 (read-out: MIC), 0.06 µg/mL (≈ 0.143 µM); in data set [2] (read-out: MIC) it was 0.06 µg/mL (≈ 0.143 µM); with Klebsiella sp. 8085 (read-out: MIC) it was 0.06 µg/mL (≈ 0.143 µM); in the data set with Micrococcus luteus 9341 (setting [8]), 0.25 µg/mL (≈ 0.596 µM). The minimum inhibitory concentration (MIC) was found to be 0.06 µg/mL (≈ 0.143 µM) in data set [3] (read-out: MIC) and 0.03 µg/mL (≈ 0.0715 µM) in the data set with Morganella morganii 932 (read-out: MIC). Also, the IC50 in “in vitro” amounted to 35 µg/mL (≈ 83.5 µM). The same molecule returned an LD50 in data set [4] of 150 mg/kg.

Take `CN1CCC2=C(C1)CN(c1c(F)cc3c(=O)c(C(=O)O)cn([C@@H]4C[C@@H]4F)c3c1Cl)C2` (relative stereo) [Example 4, 8-chloro-6-fluoro-1-(cis-2-fluorocyclopropyl)-1,4-dihydro-7-(5-methyl-2,3,4,5,6,7-hexahydro-1H-pyrrolo[3,4-c]-pyridin-2-yl)-4-oxo-3-quinolinecarboxylic acid]: the MIC in the data set on Escherichia coli Neumann (setting [6]) is ≤ 0.015 µg/mL; in data set [1] (setting [7]), 0.25 µg/mL (≈ 0.574 µM); with Providencia sp. 12012 (read-out: MIC) it was 0.06 µg/mL (≈ 0.138 µM); in [2] (read-out: MIC), ≤ 0.015 µg/mL; in the data set on Klebsiella sp. 8085 (read-out: MIC), 0.06 µg/mL (≈ 0.138 µM); in the data set on Micrococcus luteus 9341 (setting [8]) it was 0.125 µg/mL (≈ 0.287 µM). The MIC (in [3] (read-out: MIC); in the data set on Morganella morganii 932 (read-out: MIC)) was 0.06 µg/mL (≈ 0.138 µM) in each case.

With `CN1CCC2=C(C1)CN(c1c(F)cc3c(=O)c(C(=O)O)cn([C@@H]4C[C@@H]4F)c3c1F)C2` (single isomer, unassigned) [Example 3, (+)-6,8-difluoro-1-(cis-2-fluorocyclopropyl)-1,4-dihydro-7-(5-methyl-2,3,4,5,6,7-hexahydro-1H-pyrrolo[3,4-c]pyridin-2-yl)-4-oxo-3-quinolinecarboxylicacid], the MIC against Escherichia coli Neumann was ≤ 0.015 µg/mL; in [1] (37° C.), 0.5 µg/mL (≈ 1.19 µM); against Providencia sp. 12012, 0.06 µg/mL (≈ 0.143 µM); in data set [2], 0.06 µg/mL (≈ 0.143 µM); against Klebsiella sp. 8085 it was 0.06 µg/mL (≈ 0.143 µM); with Micrococcus luteus 9341 it was 0.125 µg/mL (≈ 0.298 µM). In addition, the MIC (in [3]; against Morganella morganii 932) was 0.06 µg/mL (≈ 0.143 µM) throughout. Besides, the “ID50 (concentration at which DNA synthesis is inhibited by 50%)” value in [5] is 40 µg/mL (≈ 95.4 µM). The molecule further returned an LD50 in the data set on CFl mice of 50 mg/kg.

Turning to `CN1CCC2=C(C1)CN(c1c(F)cc3c(=O)c(C(=O)O)cn([C@@H]4C[C@@H]4F)c3c1F)C2` (single isomer, unassigned) [Example 2, (-)-6,8-difluoro-1-(cis-2-fluorocyclopropyl)-1,4-dihydro-7-(5-methyl-2,3,4,5,6,7-hexahydro-1H-pyrrolo[3,4-c]pyridin-2-yl)-4-oxo-3-quinolinecarboxylicacid], the minimal inhibitory concentration (MIC) with Escherichia coli Neumann (setting [6]) stood at 0.03 µg/mL (≈ 0.0715 µM); in data set [1] (setting [7]) it was 0.5 µg/mL (≈ 1.19 µM); with Providencia sp. 12012 (read-out: MIC), 0.06 µg/mL (≈ 0.143 µM); in data set [2] (read-out: MIC), 0.06 µg/mL (≈ 0.143 µM); in the data set on Klebsiella sp. 8085 (read-out: MIC), 0.06 µg/mL (≈ 0.143 µM); in the data set on Micrococcus luteus 9341 (setting [8]) it was 0.25 µg/mL (≈ 0.596 µM). Also, the MIC (in [3] (read-out: MIC); in the data set with Morganella morganii 932 (read-out: MIC)) was 0.06 µg/mL (≈ 0.143 µM) throughout. In addition, in “in vitro”, it took 40 µg/mL (≈ 95.4 µM) to reach half-maximal inhibition (IC50). The molecule further gave an LD50 in the data set on CFl mice of 200 mg/kg.

Regarding `CN1CCC2=C(C1)CN(c1c(F)cc3c(=O)c(C(=O)O)cn(C4CC4)c3c1Cl)C2` [Ref. 2, 8-chloro-1-cyclopropyl-6-fluoro-1,4-dihydro-7-(5-methyl-2,3,4,5,6,7-hexahydro-1H-pyrrolo[3,4-c]pyridin-2-yl)-4-oxo-3-quino-1-linecarboxylic acid, reference compound], the MIC came to 0.03 µg/mL (≈ 0.0718 µM) in the data set on Escherichia coli Neumann (setting [6]); 0.5 µg/mL (≈ 1.2 µM) in data set [1] (setting [7]); 0.125 µg/mL (≈ 0.299 µM) in the data set with Providencia sp. 12012 (read-out: MIC); 0.03 µg/mL (≈ 0.0718 µM) in data set [2] (read-out: MIC); 0.06 µg/mL (≈ 0.144 µM) in the data set with Klebsiella sp. 8085 (read-out: MIC); 0.25 µg/mL (≈ 0.598 µM) in the data set with Micrococcus luteus 9341 (setting [8]). The MIC (in data set [3] (read-out: MIC); in the data set with Morganella morganii 932 (read-out: MIC)) was 0.06 µg/mL (≈ 0.144 µM) each time. Moreover, in the data set “in vitro”, the concentration for half-maximal inhibition (IC50) was found to be 16 µg/mL (≈ 38.3 µM). The molecule further came in with an LD50 in data set [4] of 50 mg/kg.

Take `CN1CCC2=C(C1)CN(c1c(F)cc3c(=O)c(C(=O)O)cn(C4CC4)c3c1F)C2.Cl` [Ref. 1, 1-cyclopropyl-6,8-difluoro-1,4-dihydro-7-(5-methyl-2,3,4,5,6,7-hexahydro-1H-pyrrolo[3,4-c]pyridin-2-yl)-4-oxo-3-quinolinecarboxylic acid hydrochloride, reference compound]: the minimal inhibitory concentration (MIC) was ≤ 0.015 µg/mL with Escherichia coli Neumann (setting [6]); 1 µg/mL in data set [1] (setting [7]); 0.125 µg/mL with Providencia sp. 12012 (read-out: MIC); 0.6 µg/mL in [2] (read-out: MIC); 0.06 µg/mL with Klebsiella sp. 8085 (read-out: MIC); 0.5 µg/mL with Micrococcus luteus 9341 (setting [8]). The minimum inhibitory concentration (MIC) in data set [3] (read-out: MIC) was determined as 0.125 µg/mL; in the data set with Morganella morganii 932 (read-out: MIC), 0.03 µg/mL. This molecule also came in with an IC50 in the data set “in vitro” of 1 µg/mL. Moreover, in [4], the LD50 was determined as 50 mg/kg.
